Patent US10414771B2, “Compounds useful for inhibiting metastasis from cancer and methods using same” (Drexel University, priority 2010, dated 2019)
Values joined by “and” are separate entries in the source; they are usually repeats but may differ in a detail not shown here. Equal entries are not always repeated. Where two headings read alike, the source gives them in different places. Blank lines part the entries; values can stand above or below the molecule they belong to.

What was measured:
Format in all cases: cell-based
[1] = target: T1, CX3CR1 (Homo sapiens, UniProt P49238); assay: Inhibition of FKN-induced ERK phosphorylation in MDA-436 breast cancer cells over-expressing CX3CR1 (Western blot); set-up: expressed in transfected cells; host or cells: MDA-MB-436 human breast cancer cells; settings: for inhibition of ERK phosphorylation induced by FKN: compound at 10 μM, incubated 30 minutes, MDA-436 cells over-expressing CX3CR1, 50 nM FKN for 5 minutes
T1 sequence (P49238 1-355): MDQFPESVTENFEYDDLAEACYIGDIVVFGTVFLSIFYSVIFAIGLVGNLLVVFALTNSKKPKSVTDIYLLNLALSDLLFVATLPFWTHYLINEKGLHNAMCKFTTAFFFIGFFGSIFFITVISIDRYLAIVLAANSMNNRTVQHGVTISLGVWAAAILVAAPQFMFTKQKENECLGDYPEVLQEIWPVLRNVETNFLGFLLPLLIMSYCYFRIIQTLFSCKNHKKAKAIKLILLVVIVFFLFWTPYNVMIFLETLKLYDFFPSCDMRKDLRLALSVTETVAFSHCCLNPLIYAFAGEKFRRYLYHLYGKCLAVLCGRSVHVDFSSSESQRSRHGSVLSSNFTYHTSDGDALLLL
Method: Cells were serum starved for 4 hours and then exposed to 50 nM recombinant human FKN (R&D systems, Minneapolis, Minn.) for indicated time points.
(§1) Cell lysates were obtained and SDS-polyacrylamide gel electrophoresis and western blot analysis were performed as previously described (Shulby et al., 2004, Cancer Res. 64:4393-98), with few modifications. Membranes were probed with an antibody against CX3CR1 (0.5 μg/ml, Torrey Pines Biolabs, East Orange, N.J.) and actin (Sigma, St. Louis, Mo.) using 5% milk as a blocking reagent. Membranes were also probed with antibodies targeting phospho-p44/42 MAPK (Thr202/Tyr204, Cell Signaling) and total p44/42 MAPK (Cell Signaling). All primary antibody incubations were performed overnight at 4° C. Primary antibody binding was detected using horseradish peroxidase-conjugated anti-rabbit secondary antibody (Pierce, Rockford, Ill.). Chemiluminescent signals were obtained using SuperSignal West Femto reagents (Pierce) and detected with the Fluorochem 8900 imaging system and relative software (Alpha Innotech, San Leandro, Calif.).
Compound 1 was then evaluated for its ability to inhibit the activation of downstream intracellular pathways by CX3CR1 upon stimulation with soluble FKN. In these experiments, MDA-MB 436 human breast cancer cells, engineered to over-express CX3CR1, were treated with 50 nM FKN for 5 minutes after being incubated with compound 1 for 30 minutes.

[2] = target: T1, CX3CR1; assay: Calcium mobilization (Ca2+) assay, agonist mode, HEK293T cells stably expressing human CX3CR1; set-up: Expression vector containing full-length human CX3CR1 cDNA; host or cells: HEK293T; settings: for stimulation of calcium flux (agonist activity): HEK293T cells expressing human CX3CR1
Method: (§2) Cells: Mammalian HEK293T cells stably expressing human CX3CR1 (Multispan, Hayward, Calif.)—Host cell: HEK293T; Transfection: Expression vector containing full-length human CX3CR1 cDNA (GenBank Accession Number NM_001337) with FLAG tag sequence at N-terminus; Propagation Medium: DMEM, 10% FBS, 1 μg/mL puromycin.
(§3) Compounds were reconstituted in DMSO at 10 mM. Control agonist CX3CL1 was from Peprotech (Cat #300-31).
(§4) Calcium assay: Cells expressing the CX3CR1 receptor were transiently transfected with the chimeric G protein Gαqi5 and seeded in 384-well plates at appropriate densities and cultured overnight. Calcium assays were conducted according to the manufacturer's protocols. The calcium dye loading buffer was added to the cells and incubated for one hour at 37° C. Calcium flux was monitored for 90 seconds with compound injected into the wells at 20th second. In antagonist mode, carrier or compounds were preincubated with the cells for 30 minutes before calcium flux measurement with the control agonist at EC80 concentration (0.04 μM).
(§5) Data analysis: Calcium assay results were expressed as “RFU” and “% Increase in RFU” (FIG. 17). Data were represented in Mean±SEM. Dose-response curves were fitted using “Sigmoidal dose-response (variable slope)” function in Prism 4 without constraint. EC50, EC80 and IC50 values were derived from “% Increase in RFU”.

[3] = target: T1, CX3CR1; assay: Calcium mobilization (Ca2+) assay, antagonist mode (CX3CL1 at EC80), HEK293T cells stably expressing human CX3CR1; set-up: Expression vector containing full-length human CX3CR1 cDNA; host or cells: HEK293T; settings: for % Increase in RFU / RFU: antagonist mode
Method: as §2, §3, §4, §5

[4] = tested on: p-ERK1/2; assay: p-ERK1/2 inhibition by Western blot analysis
Method: as §1

[5] = agonist mode, Log [Compounds] M −4.5, listed as JMS-16
[6] = agonist mode, Log [Compounds] M −4.8, listed as JMS-16
[7] = agonist mode, Log [Compounds] M −5.1, listed as JMS-16
[8] = agonist mode, Log [Compounds] M −5.4, listed as JMS-16
[9] = agonist mode, Log [Compounds] M −5.7, listed as JMS-16
[10] = agonist mode, Log [Compounds] M −6.0, listed as JMS-16
[11] = agonist mode, Log [Compounds] M −6.3, listed as JMS-16
[12] = agonist mode, Log [Compounds] M −6.6, listed as JMS-16
[13] = CX3CL1 at EC80 (0.04 μM), Log [Compounds] M −4.5, listed as JMS-16
[14] = CX3CL1 at EC80 (0.04 μM), Log [Compounds] M −4.8, listed as JMS-16
[15] = CX3CL1 at EC80 (0.04 μM), Log [Compounds] M −5.1, listed as JMS-16
[16] = CX3CL1 at EC80 (0.04 μM), Log [Compounds] M −5.4, listed as JMS-16
[17] = CX3CL1 at EC80 (0.04 μM), Log [Compounds] M −5.7, listed as JMS-16
[18] = CX3CL1 at EC80 (0.04 μM), Log [Compounds] M −6.0, listed as JMS-16
[19] = CX3CL1 at EC80 (0.04 μM), Log [Compounds] M −6.3, listed as JMS-16
[20] = CX3CL1 at EC80 (0.04 μM), Log [Compounds] M −6.6, listed as JMS-16
[21] = control agonist, Log [CX3CL1] M −6.7
[22] = control agonist, Log [CX3CL1] M −7.2
[23] = control agonist, Log [CX3CL1] M −7.7
[24] = control agonist, Log [CX3CL1] M −8.1
[25] = control agonist, Log [CX3CL1] M −8.6
[26] = control agonist, Log [CX3CL1] M −9.1
[27] = control agonist, Log [CX3CL1] M −9.6
[28] = control agonist, Log [CX3CL1] M −10.0
[29] = EC80 CX3CL1 (0.04 μM) alone, no test compound

Molecule: N#CC(CCCN1CCC(O)(c2ccc(Cl)cc2)CC1)(c1ccccc1)c1ccccc1 [Compound 1, 5-(4-(4-chlorophenyl)-4-hydroxypiperidin-1-yl)-2,2-diphenylpentanenitrile]
CX3CR1 antagonism (in words) [1]: weakly potent | inhibition of ERK phosphorylation induced by FKN [1]: inhibits ERK phosphorylation | inhibition of ERK phosphorylation induced by FKN ([1]; listed as compound 1): able to inhibit the activation of the MAPK pathway | CX3CR1 antagonism (in words) ([1]; listed as compound 1): weak CX3CR1 antagonism

Molecule: O=c1c2cccn2c2ccccc2n1CCCN1CCC(O)(c2ccc(Cl)cc2)CC1 [Compound 3, 5-(3-(4-(4-chlorophenyl)-4-hydroxypiperidin-1-yl)propyl)pyrrolo[1,2-a]quinoxalin-4(5H)-one]
stimulation of calcium flux (agonist activity) [2]: agonist activity at the two highest concentrations | % Increase in RFU [2, 5]: 127.9% and 118.0% and 112.4% | RFU [2, 5]: 31.7 RFU and 30.7 RFU and 29.0 RFU | % Increase in RFU [2, 6]: 80.2% and 85.0% and 84.7% | RFU [2, 6]: 22.1 RFU and 22.5 RFU and 23.3 RFU | % Increase in RFU [2, 7]: 60.1% and 70.3% and 64.9% | RFU [2, 7]: 16.5 RFU and 20.3 RFU and 18.8 RFU | % Increase in RFU [2, 8]: 61.1% and 62.3% and 60.5% | RFU [2, 8]: 15.5 RFU and 16.9 RFU and 17.1 RFU | % Increase in RFU [2, 9]: 57.2% and 61.7% and 60.7% | RFU [2, 9]: 15.2 RFU and 17.8 RFU and 17.1 RFU | % Increase in RFU [2, 10]: 58.3% and 63.2% and 63.0% | RFU [2, 10]: 15.6 RFU and 18.7 RFU and 18.6 RFU | % Increase in RFU [2, 11]: 59.0% and 66.2% and 61.9% | RFU [2, 11]: 16.0 RFU and 18.2 RFU and 19.5 RFU | % Increase in RFU [2, 12]: 61.6% and 62.1% and 60.1% | RFU [2, 12]: 15.5 RFU and 18.6 RFU and 17.8 RFU | IC50 ([3]; 30 min preincubation, CX3CL1 at EC80 (0.04 μM), read-out: IC50, inhibition of CX3CL1-evoked calcium flux): 21 µM | % Increase in RFU [3, 13]: 4.4% and 3.5% and 2.2% | RFU [3, 13]: 1.2 RFU and 0.9 RFU and 0.6 RFU | % Increase in RFU [3, 14]: 27.9% and 23.6% and 26.7% | RFU [3, 14]: 9.5 RFU and 7.6 RFU and 8.5 RFU | % Increase in RFU [3, 15]: 45.0% and 38.6% and 38.7% | RFU [3, 15]: 15.0 RFU and 13.0 RFU and 12.3 RFU | % Increase in RFU [3, 16]: 52.1% and 45.7% and 41.1% | RFU [3, 16]: 15.5 RFU and 14.4 RFU and 13.5 RFU | % Increase in RFU [3, 17]: 48.9% and 53.1% and 47.0% | RFU [3, 17]: 15.6 RFU and 17.9 RFU and 14.4 RFU | % Increase in RFU [3, 18]: 58.1% and 54.8% and 53.3% | RFU [3, 18]: 18.4 RFU and 18.6 RFU and 18.2 RFU | % Increase in RFU [3, 19]: 46.4% and 46.2% and 42.0% | RFU [3, 19]: 15.7 RFU and 14.6 RFU and 14.5 RFU | % Increase in RFU [3, 20]: 45.9% and 41.3% and 44.0% | RFU [3, 20]: 13.6 RFU and 14.0 RFU and 14.4 RFU | EC50 [4]: ~0.01 µM

% Increase in RFU [2, 21]: 59.0% and 61.1% | RFU [2, 21]: 22.2 RFU and 22.7 RFU | % Increase in RFU [2, 22]: 59.9% and 52.7% | RFU [2, 22]: 21.4 RFU and 20.1 RFU | % Increase in RFU [2, 23]: 42.3% and 35.6% | RFU [2, 23]: 15.5 RFU and 12.4 RFU | % Increase in RFU [2, 24]: 25.3% and 14.3% | RFU [2, 24]: 9.3 RFU and 4.8 RFU | % Increase in RFU [2, 25]: 9.6% and 11.8% | RFU [2, 25]: 3.3 RFU and 4.0 RFU | % Increase in RFU [2, 26]: 12.2% and 11.0% | RFU [2, 26]: 4.4 RFU and 4.1 RFU | % Increase in RFU [2, 27]: 8.3% and 5.1% | RFU [2, 27]: 2.9 RFU and 1.9 RFU | % Increase in RFU [2, 28]: 7.6% and 4.7% | RFU [2, 28]: 2.6 RFU and 1.6 RFU | % Increase in RFU [3, 29]: 45.9% and 37.2% and 45.8% | RFU [3, 29]: 16.0 RFU and 10.9 RFU and 15.8 RFU
B1: CX3CL1: Control agonist CX3CL1 from Peprotech; chemokine ligand of CX3CR1, also called fractalkine or FKN (protein, listed as Homo sapiens)
chain: MAPISLSWLLRLATFCHLTVLLAGQHHGVTKCNITCSKMTSKIPVALLIHYQQNQASCGKRAIILETRQHRLFCADPKEQWVKDAMQHLDRQAAALTRNGGTFEKQIGEVKPRTTPAAGGMDESVVLEPEATGESSSLEPTPSSQEAQRALGTSPELPTGVTGSSGTRLPPTPKAQDGGPVGTELFRVPPVSTAATWQSSAPHQPGPSLWAEAKTSEAPSTQDPSTQASTASSPAPEENAPSEGQRVWGQGQSPRPENSLEREEMGPVPAHTDAFQDWGPGSMAHVSVVPVSSEGTPSREPVASGSWTPKAEEPIHATMDPQRLGVLITPVPDAQAATRRQAVGLLAFLGLLFCLGVAMFTYQSLQGCPRKMAGEMAEGLRYIPRSCGSNSYVLVPV
stimulation of calcium flux (agonist activity) [2]: dose-dependent stimulation of calcium flux
